This assay has as its system A/Wuhan/359/95 E119V (oseltamivir-resistant). The class given is cell-based, influenza A virus. To be noted: read-out: IC50 (nM of Zanamivir).

SMILES strings stand for the structures.

`CC(=O)N[C@H]1[C@H]([C@H](O)[C@H](O)CO)OC(C(=O)O)=C[C@@H]1N=C(N)N` [compound 1, Zanamivir]: the IC50 came to 48000 nM.

Broadly, the IC50 is the concentration that inhibits the measured activity by half.

These data come from paper PMC3058180 (Journal of pharmaceutical sciences, 2010).
